Test results: US7647217B2, “Structure of the farnesoid X receptor ligand binding domain and methods of use therefor” (The Salk Institute for Biological Studies, priority 2002, dated 2010)

Tested on: IBABP mRNA in HT29-FXRFL cells
Assay: Northern blot of IBABP mRNA induction in HT29 stable cell lines
Assay type: cell-based, human
Procedure: 20 μg total RNA was isolated using Trizol (Invitrogen) and used for Northern blot analysis. cDNA probe for human IBABP was prepared and hybridized to the blot. Blots were normalized by β-actin expression.
HepG2 or HT29-derived cell lines were typically cultured in medium containing superstripped FBS for 24 hr before the addition of a ligand or DMSO (vehicle) for an additional 24-48 hr. Total RNA was isolated using TRIzol reagent and was resolved (10 μg/lane) on a 1% agarose, 2.2 M formaldehyde gel, transferred to a nylon membrane (Hybond N^+; Amersham Biosciences, Inc.), and cross-linked to the membrane with UV light.
cDNA probes were radiolabeled with [α-^32P]dCTP using the highprime labeling kit (Amersham Biosciences, Inc.). Membranes were hybridized using the QuikHyb hybridization solution (Stratagene, La Jolla, Calif.) according to the manufacturer's protocol. Blots were normalized for variations of RNA loading by hybridization to a control probe, either, 18 S ribosomal cDNA, or the ribosomal protein 36B4. The RNA levels were quantitated using a PhosphorImager (ImageQuant software; Molecular Dynamics, Inc., Sunnyvale, Calif.) in addition to being exposed to X-ray film.
Human colon cells HT29 (FXR null until differentiated) were infected with retroviral vectors that expressed either FXR constructs and the puromycin-resistant gene or the puromycin-resistant gene alone. Puromycin resistant cells were isolated and pooled cell populations were propagated that harbored either the vector alone (HT29-BABE), overexpressed FXR full length (HT29-FXRFL), a non-functional FXR truncated at the AF2 region (HT29-FXR-AF2), or a constitutively active FXR that has the VP16 activation domain fused N-terminal of the protein (HT29-VP16-FXR). Confirmation of the successful establishment of the different stable cell lines was established via northern blot analysis of FXR message levels in the cells (see FIG. 4A). […]
The ability of the novel compounds identified herein to induce IBABP gene expression in this cell system was also examined. Total RNA from HT29 stable cells treated overnight with fexaramine, fexarine and fexarene was probed for IBABP gene expression (see FIG. 4D).

[1] = HT29-FXRFL, overnight treatment

C[C@H](CCC(=O)O)[C@H]1CC[C@H]2[C@@H]3[C@H](O)C[C@@H]4C[C@H](O)CC[C@]4(C)[C@H]3CC[C@]12C [CDCA, chenodeoxycholic acid, reference compound]
induction of IBABP mRNA in control lines (HT29-BABE or HT29-FXR-AF2 cell lines): No induction | concentration of maximal activation of the IBABP gene [1]: 100 µM | induction of IBABP mRNA [1]: robust concentration dependent induction
